In patent US6524616B1, “COMPOSITIONS AND METHODS FOR TREATING OR PREVENTING NEURODEGENERATION AND COGNITIVE DECLINE AND DYSFUNCTION ASSOCIATED WITH ALZHEIMER'S DISEASE, AGING, OTHER DEMENTIA RELATED DISORDERS AND ESTROGEN DEFICIENCY RELATED CONDITIONS” (priority 1999, dated 2003):

Legend:
[1] = system: ovariectomized retired breeder female rats; assay: Radial arm maze test, Example 1 (10 months of treatment); format: in vivo; settings: oral in diet, given alone
Protocol: Eight-four retired breeder females (Sprague-Dawley), weighing 300-360 g (8-10 months old), were purchased from Harlan Sprague Dawley, Inc. The rats were housed in separate cages and were initially maintained on a 12:12 hour light/dark cycle with access to Chow diet and water ad libitum. All procedures done on the animals were approved by the Animal Care and Use Committee of Wake Forest University. Upon arrival, the rats were weighed, and then randomized into the 12 treatment groups using a stratified randomization scheme, stratifying by body weight.
Shown in Table 5 below is the 3×4 factorial study design and includes the number of rats that finished the maze tests. […]
After the training, the rats were tested twice per day (in the morning and afternoon) 4 consecutive days per week for two weeks. […] A visit to an arm was recorded if the rat reached three-fourths of the length of the arm. The maze performance was recorded as the number of correct choices in the first 8 visits. A mistake was counted if a rat reentered an arm from which the rat has already eaten the bait. […]
All data were analyzed using BMDP Statistical Software, version 7.0 (Los Angeles, Calif.). Uterine weights expressed as a percentage of body weight and body weight violated the assumption of equal variances, and were not normally distributed. […] Body weight, uterine weight, and maze data were analyzed by 2-way ANOVA. […]

aged ovariectomized rats = assay: Radial arm maze test, Example 2 (chronic estrogen-deficient aged rats); format: in vivo
Protocol: Thirty-six retired breeder female rats (8-10 months old) were purchased from Harlan Sprague Dawley, Inc. The rats were housed in separate cages and were initially maintained on a 12:12 hour light/dark cycle with access to Chow diet and water ad libitum. All procedures done on the animals were approved by the Animal Care and Use Committee of Wake Forest University. After bilateral ovariectomy, the rats were fed with a casein/lactalbumin-based control diet for about 12 months (until about 2 years of age). The rats were then evaluated in a 8-arm radial arm maze to determine their baseline working memory. […] The rats were tested in the maze at 1 and 3 months after the initiation of the treatments.
After 3 months of treatment, each of the 3 groups were divided randomly into two subgroups. One subgroup was given Hup A orally (0.3 mg/Kg of body weight) in addition to their control regimen or treatment with SPEs or E2 and the other subgroup received no Hup A. After 3 weeks of Hup A supplementation, working memory was reevaluated.
A pellet of fudge brownie (Little Debbie, Mckee Foods, Collegedale, Tenn.) was placed in each of the 8 food wells located at the end of each arm to serve as a reward. The rats were allowed to explore the maze for 10 min or until all eight rewards were eaten. The training session was terminated when the rats were able to eat all 8 rewards within 10 min.
After the training, the rats were tested once per day 4 consecutive days per week for two weeks. One day prior to the test, and during the first three test days, the food intake was reduced to 25% of the normal 40 g/day food intake. A visit to an arm was recorded if the rat reached three-fourths of the length of the arm. The maze performance was recorded as the number of correct choices in the first 8 visits. A mistake was counted if a rat reentered an arm from which the rat has already eaten the bait. A test session of a rat was terminated when the rat ate all eight rewards or 10 min had elapsed. […]

[2] = system: patients with Alzheimer's disease; settings: cited from earlier work; for Effects on Cognitive Function: cognitive decline in Alzheimer's disease
[3] = in vivo; cited from earlier work
patients = settings: Tacrine 100 mg/day; cited from earlier work
BuChE (blood) = settings: read-out: IC50 BuChE, in vitro; cited from earlier work
liver = settings: in vivo; cited from earlier work

CC12CCC3c4ccc(O)cc4CCC3C1CCC2O (stereo not drawn) [estradiol, 17-β estradiol]
performance of the radial arm maze tests [1]: dosedependent improvement
maze performance (working memory) versus Ctl group (aged ovariectomized rats; at both 1 and 3 months of treatment, after 12 months of estrogen-deficiency): significantly better

Nc1ccncc1 [4-aminopyridine]
Effects on Cognitive Function [2]: Unchanged/Slight Improvement

CC(C[N+](C)(C)C)OC(N)=O (centres unmarked) [Bethanecol]
Effects on Cognitive Function [2]: Unchanged/Slight Improvement

Phosphatidylserine
Effects on Cognitive Function [2]: Slight Improvement

C/C=C1\[C@H]2C=C(C)C[C@]1(N)c1ccc(=O)[nH]c1C2 [Huperzine A, (5R, 9R, 11E)-5-amino-11-ethylidene-5,6,9,10-tetrahydro-7-methyl-5,9-methanocycloocta(b)pyridin2(1H)-one]
cognitive function (proportion of animals with improved working memory) (aged ovariectomized rats; Hup A 0.3 mg/Kg orally for 3 weeks added to E2 treatment): slightly improved
cognitive function (proportion of animals with improved working memory) (aged ovariectomized rats; Hup A 0.3 mg/Kg orally for 3 weeks added to SPE treatment): considerably improved
Effects on Cognitive Function [2]: Significant Improvement

CN1CCCC1c1cccnc1 (centres unmarked) [Nicotine]
Effects on Cognitive Function [2]: Slight Improvement

O=C1CCCN1CC#CCN1CCCC1 [Oxotremorine]
Effects on Cognitive Function [2]: Unchanged

CC[C@@H]1C(=O)OC[C@@H]1Cc1cncn1C [Pilocarpine]
Effects on Cognitive Function [2]: Unchanged

COC(=O)C1=CCCN(C)C1 [Arecoline]
Effects on Cognitive Function [2]: Unchanged/Slight Improvement

CNC(=O)Oc1ccc2c(c1)[C@]1(C)CCN(C)[C@@H]1N2C [Physostigmine]
half-life [3]: short half-life

Nc1c2c(nc3ccccc13)CCCC2 [Tacrine]
Effects on Cognitive Function [2]: Unchanged to Significant Improvement
improving symptoms of Alzheimer's disease ([2]; in vivo): mildly effective
Abdominal Cramps (patients): 38 Per Cent of Patients
Diarrhea (patients): 23 Per Cent of Patients
Dizziness (patients): 12 Per Cent of Patients
Excessive Sweating (patients): 4 Per Cent of Patients
Nausea (patients): 25 Per Cent of Patients
Polyuria (patients): 25 Per Cent of Patients
Ptyalsim (patients): 10 Per Cent of Patients
Vomitin (patients): 15 Per Cent of Patients
liver toxicity (liver): toxic to the liver

Lecithin
Effects on Cognitive Function [2]: Unchanged/Slight Improvement
